In patent US20250115583A1, “BICYCLIC INDAZOLE GLUCOCORTICOID RECEPTOR ANTAGONISTS” (Corcept Therapeutics Incorporated, priority 2021, published 2025):

These molecules were tested against glucocorticoid receptor (Homo sapiens (Human), UniProt P04150) (assay: HepG2 TAT assay: inhibition of dexamethasone-induced tyrosine aminotransferase (TAT) activity). Conditions: HepG2 cells, challenge of 100 nM dexamethasone, 18-24 hr; IC50 converted to Ki by Cheng and Prusoff equation.
Format: cell-based
Method: Glucocorticoid mediated activation of TAT occurs by transactivation of glucocorticoid response elements in the TAT promoter by glucocorticoid receptor-agonist complex.
HepG2 cells were cultured using MEME media supplemented with 10% (v/v) foetal bovine serum; 2 mM L-glutamine and 1% (v/v) NEAA at 37° C., 5%/95% (v/v) CO2/air.
Compounds were serially half log diluted in 100% (v/v) dimethylsulphoxide from a 10 mM stock.
HepG2 cells were then lysed with 30 μl of cell lysis buffer containing a protease inhibitor cocktail for 15 minutes at 4° C. […] After 2 hours incubation at 37° C. the reaction was terminated by the addition of 15 μl of 10M aqueous potassium hydroxide solution, and the plates incubated for a further 30 minutes at 37° C.
[compound] and fitting the data to a 4 parameter logistic equation.

Chain of glucocorticoid receptor (P04150 whole entry): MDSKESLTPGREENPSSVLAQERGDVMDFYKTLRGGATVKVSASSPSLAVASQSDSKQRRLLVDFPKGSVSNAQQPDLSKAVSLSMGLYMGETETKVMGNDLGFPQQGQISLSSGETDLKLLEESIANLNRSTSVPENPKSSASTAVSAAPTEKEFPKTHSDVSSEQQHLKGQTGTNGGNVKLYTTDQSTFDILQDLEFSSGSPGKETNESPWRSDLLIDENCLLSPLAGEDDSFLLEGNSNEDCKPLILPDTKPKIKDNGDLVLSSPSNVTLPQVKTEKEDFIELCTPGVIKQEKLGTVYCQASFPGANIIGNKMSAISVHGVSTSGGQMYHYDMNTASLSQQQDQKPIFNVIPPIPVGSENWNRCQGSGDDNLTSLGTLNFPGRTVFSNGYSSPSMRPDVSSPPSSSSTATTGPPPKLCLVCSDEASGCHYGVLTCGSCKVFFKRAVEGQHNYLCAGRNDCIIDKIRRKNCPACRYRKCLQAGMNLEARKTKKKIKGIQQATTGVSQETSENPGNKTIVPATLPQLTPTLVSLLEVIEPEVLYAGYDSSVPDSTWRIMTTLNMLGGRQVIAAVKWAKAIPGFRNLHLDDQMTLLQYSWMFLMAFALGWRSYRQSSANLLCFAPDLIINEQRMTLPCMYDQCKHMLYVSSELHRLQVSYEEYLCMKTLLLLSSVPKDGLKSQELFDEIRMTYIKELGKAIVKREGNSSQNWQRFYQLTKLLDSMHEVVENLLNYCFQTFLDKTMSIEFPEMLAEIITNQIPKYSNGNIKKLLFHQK

Row | Structure (SMILES) | Ki
1 | CO[C@@]1(c2ccccc2)C[C@H]2CN(S(=O)(=O)c3cnn(C)n3)C[C@@]2(c2cc3cnn(-c4ccc(F)cc4)c3cc2C)C1 (stereo in doubt) [Example 19, 1-(4-fluorophenyl)-5-(5-methoxy-2-((2-methyl-2H-1,2,3-triazol-4-yl)sulfonyl)-5-phenylhexahydrocyclopenta[c]pyrrol-3a(1H)-yl)-6-methyl-1H-indazole] | 0.047 µM
2 | Cc1cc2c(cnn2-c2ccc(F)cc2)cc1[C@@]12CN(S(=O)(=O)c3cnn(C)n3)C[C@@H]1[C@@H]2CO (stereo in doubt) [Example 48, (1-(1-(4-fluorophenyl)-6-methyl-1H-indazol-5-yl)-3-((2-methyl-2H-1,2,3-triazol-4-yl)sulfonyl)-3-azabicyclo[3.1.0]hexan-6-yl) methanol] | 0.57 µM
3 | Cc1cc2c(cnn2-c2ccc(F)cc2)cc1[C@@]12CN(S(=O)(=O)c3cnn(C)n3)C[C@@H]1[C@H]2COc1ccccc1 (stereo in doubt) [Example 49, 1-(4-fluorophenyl)-6-methyl-5-(3-((2-methyl-2H-1,2,3-triazol-4-yl)sulfonyl)-6-(phenoxymethyl)-3-azabicyclo[3.1.0]hexan-1-yl)-1H-indazole] | 0.12 µM
4 | Cc1cc2c(cnn2-c2ccc(F)cc2)cc1[C@@]12CN(S(=O)(=O)c3cnn(C)n3)C[C@@H]1[C@H]2COC(C)C (stereo in doubt) [Example 51, 1-(4-fluorophenyl)-5-(6-(isopropoxymethyl)-3-((2-methyl-2H-1,2,3-triazol-4-yl)sulfonyl)-3-azabicyclo[3.1.0]hexan-1-yl)-6-methyl-1H-indazole] | 0.29 µM
5 | Cc1cc2c(cnn2-c2ccc(F)cc2)cc1[C@]12CN(S(=O)(=O)c3cnn(C)n3)C[C@H]1[C@@H]2C(=O)Nc1ccc(F)cn1 (stereo in doubt) [Example 54, 1-(1-(4-fluorophenyl)-6-methyl-1H-indazol-5-yl)-N-(5-fluoropyridin-2-yl)-3-((2-methyl-2H-1,2,3-triazol-4-yl)sulfonyl)-3-azabicyclo[3.1.0]hexane-6-carboxamide] | 0.033 µM
6 | Cc1cc2c(cnn2-c2ccc(F)cc2)cc1[C@@]12CN(S(=O)(=O)c3cnn(C)n3)C[C@@H]1[C@H]2C(=O)N1CCCC1 (stereo in doubt) [Example 55, (1-(1-(4-fluorophenyl)-6-methyl-1H-indazol-5-yl)-3-((2-methyl-2H-1,2,3-triazol-4-yl)sulfonyl)-3-azabicyclo[3.1.0]hexan-6-yl)(pyrrolidin-1-yl)methanone] | 0.3 µM
7 | Cc1cc2c(cnn2-c2ccc(F)cc2)cc1[C@@]12CN(S(=O)(=O)c3cnn(C)n3)C[C@@H]1[C@H]2C(=O)Nc1ccc(F)cn1 (stereo in doubt) [Example 56, 1-(1-(4-fluorophenyl)-6-methyl-1H-indazol-5-yl)-N-(5-fluoropyridin-2-yl)-3-((2-methyl-2H-1,2,3-triazol-4-yl)sulfonyl)-3-azabicyclo[3.1.0]hexane-6-carboxamide] | 0.038 µM
8 | Cc1cc2c(cnn2-c2ccc(F)cc2)cc1[C@]12CN(S(=O)(=O)c3cnn(C)n3)C[C@H]1[C@@H]2C(=O)Nc1ccc(F)cn1 (stereo in doubt) [Example 57, 1-(1-(4-fluorophenyl)-6-methyl-1H-indazol-5-yl)-N-(5-fluoropyridin-2-yl)-3-((2-methyl-2H-1,2,3-triazol-4-yl)sulfonyl)-3-azabicyclo[3.1.0]hexane-6-carboxamide] | 0.19 µM
9 | CC(=O)N1C[C@H]2[C@H](C(=O)Nc3ccc(F)cn3)[C@@]2(c2cc3cnn(-c4ccc(F)cc4)c3cc2C)C1 (stereo in doubt) [Example 68, 3-acetyl-1-(1-(4-fluorophenyl)-6-methyl-1H-indazol-5-yl)-N-(5-fluoropyridin-2-yl)-3-azabicyclo[3.1.0]hexane-6-carboxamide] | 0.09 µM
10 | Cc1cc2c(cnn2-c2ccc(F)cc2)cc1[C@@]12CN(C(=O)c3ccccc3)C[C@@H]1[C@H]2c1ccccc1 (stereo in doubt) [Example 110, (1-(1-(4-fluorophenyl)-6-methyl-1H-indazol-5-yl)-6-phenyl-3-azabicyclo[3.1.0]hexan-3-yl)(phenyl)methanone] | 0.023 µM
11 | Cc1cc2c(cnn2-c2ccc(F)cc2)cc1[C@@]12CN(C(=O)c3cccc(C#N)c3)C[C@@H]1[C@H]2c1ccccc1 (stereo in doubt) [Example 114, 3-(1-(1-(4-fluorophenyl)-6-methyl-1H-indazol-5-yl)-6-phenyl-3-azabicyclo[3.1.0]hexane-3-carbonyl)benzonitrile] | 0.026 µM
12 | Cc1cc2c(cnn2-c2ccc(F)cc2)cc1[C@@]12CN(C(=O)c3ccc(C#N)cc3)C[C@@H]1[C@H]2c1ccccc1 (stereo in doubt) [Example 115, 4-(1-(1-(4-fluorophenyl)-6-methyl-1H-indazol-5-yl)-6-phenyl-3-azabicyclo[3.1.0]hexane-3-carbonyl)benzonitrile] | 0.036 µM
13 | Cc1cc2c(cnn2-c2ccc(F)cc2)cc1[C@@]12CN(C(=O)c3ccccn3)C[C@@H]1[C@H]2c1ccccc1 (stereo in doubt) [Example 116, (1-(1-(4-fluorophenyl)-6-methyl-1H-indazol-5-yl)-6-phenyl-3-azabicyclo[3.1.0]hexan-3-yl)(pyridin-2-yl)methanone] | 0.031 µM

More lines, now with the values ahead:

Row | Ki | Structure (SMILES)
14 | 0.013 µM | Cc1cc2c(cnn2-c2ccc(F)cc2)cc1[C@@]12CN(C(=O)c3cc(C#N)ccn3)C[C@@H]1[C@H]2c1ccccc1 (single isomer, unassigned) [Example 149, 2-(1-(1-(4-fluorophenyl)-6-methyl-1H-indazol-5-yl)-6-phenyl-3-azabicyclo[3.1.0]hexane-3-carbonyl)isonicotinonitrile]
15 | 0.018 µM | Cc1cc2c(cnn2-c2ccc(F)cc2)cc1[C@@]12CN(C(=O)c3cc(C(F)(F)F)ccn3)C[C@@H]1[C@H]2c1ccccc1 (single isomer, unassigned) [Example 150, (1-(1-(4-fluorophenyl)-6-methyl-1H-indazol-5-yl)-6-phenyl-3-azabicyclo[3.1.0]hexan-3-yl)(4-(trifluoromethyl)pyridin-2-yl)methanone]
16 | 0.028 µM | Cc1ccc(C(=O)N2C[C@@H]3[C@@H](c4ccccc4)[C@]3(c3cc4cnn(-c5ccc(F)cc5)c4cc3C)C2)nc1 (single isomer, unassigned) [Example 151, (1-(1-(4-fluorophenyl)-6-methyl-1H-indazol-5-yl)-6-phenyl-3-azabicyclo[3.1.0]hexan-3-yl)(5-methylpyridin-2-yl)methanone]
17 | 0.02 µM | Cc1cc2c(cnn2-c2ccc(F)cc2)cc1[C@@]12CN(C(=O)c3ccc(F)cn3)C[C@@H]1[C@H]2c1ccccc1 (single isomer, unassigned) [Example 152, (1-(1-(4-fluorophenyl)-6-methyl-1H-indazol-5-yl)-6-phenyl-3-azabicyclo[3.1.0]hexan-3-yl)(5-fluoropyridin-2-yl)methanone]
18 | 0.038 µM | Cc1nc(C(=O)N2C[C@@H]3[C@@H](c4ccccc4)[C@]3(c3cc4cnn(-c5ccc(F)cc5)c4cc3C)C2)cs1 (single isomer, unassigned) [Example 153, (1-(1-(4-fluorophenyl)-6-methyl-1H-indazol-5-yl)-6-phenyl-3-azabicyclo[3.1.0]hexan-3-yl)(2-methylthiazol-4-yl)methanone]
19 | 0.019 µM | Cc1cc2c(cnn2-c2ccc(F)cc2)cc1[C@@]12CN(C(=O)c3ncccc3C#N)C[C@@H]1[C@H]2c1ccccc1 (single isomer, unassigned) [Example 155, 2-(1-(1-(4-fluorophenyl)-6-methyl-1H-indazol-5-yl)-6-phenyl-3-azabicyclo[3.1.0]hexane-3-carbonyl)nicotinonitrile]
20 | 0.019 µM | Cc1cc2c(cnn2-c2ccc(F)cc2)cc1[C@@]12CN(C(=O)c3ccc(C#N)cn3)C[C@@H]1[C@H]2c1ccccc1 (single isomer, unassigned) [Example 163, 6-(1-(1-(4-fluorophenyl)-6-methyl-1H-indazol-5-yl)-6-phenyl-3-azabicyclo[3.1.0]hexane-3-carbonyl)nicotinonitrile]
21 | 0.084 µM | Cc1cc2c(cnn2-c2ccc(F)cc2)cc1[C@@]12CN(C(=O)c3ccncc3)C[C@@H]1[C@H]2c1ccccc1 (single isomer, unassigned) [Example 165, (1-(1-(4-fluorophenyl)-6-methyl-1H-indazol-5-yl)-6-phenyl-3-azabicyclo[3.1.0]hexan-3-yl)(pyridin-4-yl)methanone]
22 | 0.021 µM | Cc1cc2c(cnn2-c2ccc(F)cc2)cc1[C@@]12CN(C(=O)c3ccc(C4CC4)cn3)C[C@@H]1[C@H]2c1ccccc1 (single isomer, unassigned) [Example 167, (5-cyclopropylpyridin-2-yl)(1-(1-(4-fluorophenyl)-6-methyl-1H-indazol-5-yl)-6-phenyl-3-azabicyclo[3.1.0]hexan-3-yl)methanone]
23 | 0.041 µM | Cc1cc2c(cnn2-c2ccc(F)cc2)cc1[C@@]12CN(C(=O)c3ncnn3C)C[C@@H]1[C@H]2c1ccccc1 (single isomer, unassigned) [Example 170, (1-(1-(4-fluorophenyl)-6-methyl-1H-indazol-5-yl)-6-phenyl-3-azabicyclo[3.1.0]hexan-3-yl)(1-methyl-1H-1,2,4-triazol-5-yl)methanone]
24 | 0.026 µM | Cc1cc2c(cnn2-c2ccc(F)cc2)cc1[C@@]12CN(C(=O)c3ncn(C)n3)C[C@@H]1[C@H]2c1ccccc1 (single isomer, unassigned) [Example 172, (1-(1-(4-fluorophenyl)-6-methyl-1H-indazol-5-yl)-6-phenyl-3-azabicyclo[3.1.0]hexan-3-yl)(1-methyl-1H-1,2,4-triazol-3-yl)methanone]
